Paper PMC5444705 (Oncotarget, 2017)
Where two headings read alike, the source gives them in different places.

Experiments:
[1] = tested on: Hep3B cells; test: MTT assay, Hep3B; assay type: cell-based; settings: Homo sapiens
Method: (§1) HepG2, Hep3B, Huh7 or L02 cells were seeded in 96-well plates at a density of 5 × 10^3 cells per well. […] After 24 and 48 h of co-incubation, used media were removed and cells were washed twice with PBS. Fresh medium containing 20 μl of MTT ([…]) was added in and cells were cultured for an additional 4 h at 37°C in a 5% CO2incubator. After that, media were removed and 200 μl of DMSO was added in. The optical density value was determined by the microplate reader (Multiskan MK3, Thermo Fisher Scientific, Atlanta, GA, USA) at 492 nm.

[2] = tested on: HepG2 cells; test: MTT assay, HepG2; assay type: cell-based; settings: Homo sapiens
Method: as §1

[3] = tested on: Huh7 cells; test: MTT assay, Huh7; assay type: cell-based; settings: Homo sapiens
Method: as §1

[4] = tested on: L02 cells; test: MTT assay, L02; assay type: cell-based; settings: Homo sapiens
Method: as §1

[5] = tested on: HepG2 xenograft tumor; test: Anti-tumor efficacy in HepG2 xenograft tumor mouse model; assay type: in vivo, Balb/C nude mice; settings: tail vein injection, 4 mg/kg (WCN-21), 25th day after injection
Method: Tumor volume and mouse body weights were recorded during drug administration period. The mice were sacrificed at 25th day after the injection and tumors were collected for histology examination.
(§2) For the efficacy study, 4 × 10^6 HepG2 cells were injected in the front armpit of the Balb/C nude mice. […] The tumor sizes were measured every other day and any death of the mice was recorded. […] TUNEL, Ki67 and hematoxylin and eosin (H&E) staining were performed by using the resected tumor tissue from mice for efficacy study. The tissue sections were examined and photographed with a microscope (Olympus SZX12, Japan) connected to a PC.

[6] = mouse, in vivo, 4 mg/kg
Method: as §2, with “To determine the toxicity of WND and WNP, we collected tissues from the mice used in efficacy study for histological analysis. […] For” for “For”

## CC[C@@]1(O)C(=O)OCc2c1cc1n(c2=O)Cc2cc3c(CN(C)C)c(O)ccc3nc2-1 [Topotecan]
[1]; 24 h
  IC50: 462 ± 20 nM
[1]; 48 h
  IC50: 112 ± 2.4 nM
[2]; HepG2, 24 h
  IC50: 1590 ± 20.6 nM
[2]; HepG2, 48 h
  IC50: 285 ± 9 nM
[3]; Huh 7, 24 h
  IC50: 500 ± 69 nM
[3]; Huh 7, 48 h
  IC50: 117 ± 48 nM
[4]; L02, 24 or 48 h, time not specified, read-out: IC50 in L02 cells
  IC50: > 500 nM
[4]; L02, 24 h, MTT, read-out: IC50
  IC50: > 500 nM
[4]; L02, 48 h, MTT, read-out: IC50
  IC50: > 500 nM
[5]
  Tumor size at 25th day: 837 mm^3
[6]
  Body weight change: significant body weight loss
  Histological analysis of hearts, livers, spleens, lungs and kidneys: myocardial fiber fracture and cardiocytes necrosis in hearts, inflammatory infiltration in livers, atrophied white pulp in spleens and disorganization of renal corpuscles in kidneys
